Data from the NIST ThermoML archive (doi:10.1016/j.jct.2012.08.022).
± gives the expanded uncertainty stated by the source.

Key:
[1] = activity coefficient (dimensionless); of the first substance listed, at infinite dilution; xn = mol fraction of the nth substance listed; conditions: Liquid, Chromatography, x1 = 0
[2] = 101.33 kPa, Liquid, vibrating tube

activity coefficient ([1]; 313 K)	activity coefficient ([1]; 333 K)	activity coefficient ([1]; 353 K)	activity coefficient ([1]; 373 K)	activity coefficient ([1]; 393 K)	activity coefficient ([1]; 413 K)	Compound	other results
2.14 ± 0.15	1.95 ± 0.13	2.07 ± 0.14	2.13 ± 0.14	2.16 ± 0.15	2.28 ± 0.16	C1COCCO1 [1,4-dioxane] + Cn1cc[n+](C[Si](C)(C)C)c1.[Cl-]	
2.44 ± 0.17	2.3 ± 0.16	2.6 ± 0.18	2.94 ± 0.2	3.85 ± 0.26	4.36 ± 0.3	c1ccccc1 [benzene] + Cn1cc[n+](C[Si](C)(C)C)c1.[Cl-]	
	0.153 ± 0.029	0.158 ± 0.029	0.163 ± 0.029			CCO [ethanol] + Cn1cc[n+](C[Si](C)(C)C)c1.[Cl-]	
9.02 ± 0.62	9.95 ± 0.68	11.7 ± 0.8	12.8 ± 0.9	13.8 ± 0.9		CCOC(C)=O [ethyl acetate] + CCCCn1cc[n+](C)c1.O=S(=O)([O-])O	
4.4 ± 0.3	4.27 ± 0.29	5.14 ± 0.35	6.96 ± 0.47	8.26 ± 0.56		CCOC(C)=O [ethyl acetate] + Cn1cc[n+](C[Si](C)(C)C)c1.[Cl-]	
	0.0373	0.0421	0.0472			CO [methanol] + Cn1cc[n+](C[Si](C)(C)C)c1.[Cl-]	
3.09 ± 0.21	2.93 ± 0.2	3.7 ± 0.25	4.31 ± 0.29	4.79 ± 0.33		C1CCOC1 [tetrahydrofuran] + Cn1cc[n+](C[Si](C)(C)C)c1.[Cl-]	
0.112 ± 0.03	0.153 ± 0.029	0.2 ± 0.029	0.253 ± 0.03	0.301 ± 0.031	0.338 ± 0.032	ClC(Cl)Cl [trichloromethane] + Cn1cc[n+](C[Si](C)(C)C)c1.[Cl-]	

Further lines, the compound ahead of its results:

Compound	activity coefficient ([1]; 313 K)	activity coefficient ([1]; 333 K)	activity coefficient ([1]; 353 K)	activity coefficient ([1]; 373 K)	activity coefficient ([1]; 393 K)	activity coefficient ([1]; 413 K)	other results
COCCOC [1,2-dimethoxyethane] + CCCCn1cc[n+](C)c1.O=S(=O)([O-])O	4.76 ± 0.32	5.61 ± 0.38	7.03 ± 0.48	8.44 ± 0.58	10 ± 0.7	11.6 ± 0.8	
COCCOC [1,2-dimethoxyethane] + Cn1cc[n+](C[Si](C)(C)C)c1.[Cl-]	3.42 ± 0.23	3.49 ± 0.24	3.56 ± 0.24	3.89 ± 0.26	3.89 ± 0.26	3.77 ± 0.26	
C1COCCO1 [1,4-dioxane] + CCCCn1cc[n+](C)c1.O=S(=O)([O-])O	2.72 ± 0.19	2.78 ± 0.19	2.99 ± 0.2	3.36 ± 0.23	3.8 ± 0.26	4.41 ± 0.3	
CCCCn1cc[n+](C)c1.O=S(=O)([O-])O [1-butyl-3-methylimidazolium hydrogen sulfate]							mass density ([2]; 303 K): 1275.9 ± 0.4 kg/m3; mass density ([2]; 308 K): 1272.5 ± 0.4 kg/m3; mass density ([2]; 313 K): 1269 ± 0.4 kg/m3; mass density ([2]; 318 K): 1266.4 ± 0.4 kg/m3; mass density ([2]; 323 K): 1263.4 ± 0.4 kg/m3; mass density ([2]; 328 K): 1260.4 ± 0.4 kg/m3; mass density ([2]; 333 K): 1257.4 ± 0.4 kg/m3; mass density ([2]; 338 K): 1254.5 ± 0.4 kg/m3; mass density ([2]; 343 K): 1251.5 ± 0.4 kg/m3; mass density ([2]; 348 K): 1248.6 ± 0.4 kg/m3; mass density ([2]; 353 K): 1245.7 ± 0.4 kg/m3; mass density ([2]; 358 K): 1242.8 ± 0.4 kg/m3; mass density ([2]; 363 K): 1240 ± 0.4 kg/m3
Cn1cc[n+](C[Si](C)(C)C)c1.[Cl-] [1-methyl-3-(trimethylsilylmethyl)imidazolium chloride]							mass density ([2]; 313 K): 1055.9 ± 1 kg/m3; mass density ([2]; 318 K): 1053 ± 0.9 kg/m3; mass density ([2]; 323 K): 1050.1 ± 0.9 kg/m3; mass density ([2]; 328 K): 1047.2 ± 0.9 kg/m3; mass density ([2]; 333 K): 1044.1 ± 0.9 kg/m3; mass density ([2]; 338 K): 1040.9 ± 0.9 kg/m3; mass density ([2]; 343 K): 1038.1 ± 0.9 kg/m3; mass density ([2]; 348 K): 1035.3 ± 0.9 kg/m3; mass density ([2]; 353 K): 1032.4 ± 0.9 kg/m3; mass density ([2]; 358 K): 1029.6 ± 0.9 kg/m3; mass density ([2]; 363 K): 1026.8 ± 0.9 kg/m3
CC#N [acetonitrile] + CCCCn1cc[n+](C)c1.O=S(=O)([O-])O	1.23 ± 0.08	1.31 ± 0.09	1.28 ± 0.08	1.26 ± 0.08	1.24 ± 0.08	1.19 ± 0.08	
CC#N [acetonitrile] + Cn1cc[n+](C[Si](C)(C)C)c1.[Cl-]	0.629 ± 0.043	0.659 ± 0.045	0.695 ± 0.047	0.712 ± 0.047	0.73 ± 0.048	0.756 ± 0.05	
c1ccccc1 [benzene] + CCCCn1cc[n+](C)c1.O=S(=O)([O-])O	5.11 ± 0.35	4.95 ± 0.34	5.36 ± 0.37	5.28 ± 0.36	5.49 ± 0.37	5.69 ± 0.39	
C[N+](=O)[O-] [nitromethane] + CCCCn1cc[n+](C)c1.O=S(=O)([O-])O	0.826 ± 0.053	0.771 ± 0.05	0.83 ± 0.053	0.939 ± 0.059	1.08 ± 0.07	1.18 ± 0.08	
C[N+](=O)[O-] [nitromethane] + Cn1cc[n+](C[Si](C)(C)C)c1.[Cl-]	0.449 ± 0.036	0.442 ± 0.036	0.477 ± 0.037	0.527 ± 0.039	0.559 ± 0.04	0.599 ± 0.042	
CCCO [propan-1-ol] + Cn1cc[n+](C[Si](C)(C)C)c1.[Cl-]		0.0747 ± 0.03	0.0878 ± 0.03	0.102 ± 0.03			
C1CCOC1 [tetrahydrofuran] + CCCCn1cc[n+](C)c1.O=S(=O)([O-])O	5.1 ± 0.35	5.61 ± 0.38	6.6 ± 0.45	7.34 ± 0.5	8.55 ± 0.58		
Cc1ccccc1 [toluene] + CCCCn1cc[n+](C)c1.O=S(=O)([O-])O	8.51 ± 0.58	9.22 ± 0.63	9.7 ± 0.66	11.1 ± 0.8	13 ± 0.9	13.9 ± 1	
Cc1ccccc1 [toluene] + Cn1cc[n+](C[Si](C)(C)C)c1.[Cl-]	4.1 ± 0.28	3.8 ± 0.26	4.07 ± 0.28	4.67 ± 0.32	5.46 ± 0.37	6.21 ± 0.42	
